{
  "source": "patent US20040142937A1",
  "about": "“Use of heterocyclic amine-type compounds as neuroprotective agents” (priority 2002, published 2004)",
  "key": {"[1]": {"tested_on": "rat model of cerebral infarction", "conditions": "administered before the event; cited from earlier work"}, "rats": {"tested_on": "rats", "experiment": "3-acetylpyridine (3-AP) neurotoxicity model in rats", "format": "in vivo, rat"}, "[2]": {"conditions": "sumanirole 1-20 mg/kg PO, given before or after 3-AP, sacrifice 96 hours later, dose-related"}},
  "data": [
    {"compound": "CCN(CC)C(=O)N[C@H]1C=C2c3cccc4[nH]cc(c34)C[C@H]2N(C)C1", "note": "[Lisuride]", "values": [
      {"measurement": "brain edema", "setting": "[1]", "result": "reduced"},
      {"measurement": "survival time", "setting": "[1]", "result": "prolonged"}
    ]},
    {"compound": "CN[C@@H]1Cc2cccc3[nH]c(=S)n(c23)C1.O=C(O)CC(O)C(=O)O", "values": [
      {"measurement": "melting point", "result": "195 to 196", "unit": "°C"}
    ]},
    {"compound": "CN[C@@H]1Cc2cccc3[nH]c(=S)n(c23)C1", "values": [
      {"measurement": "melting point", "result": "210 to 213", "unit": "°C"}
    ]},
    {"compound": "CN[C@@H]1Cc2cccc3[nH]c(=O)n(c23)C1.O=C(O)/C=C\\C(=O)O", "note": "[Sumanirole, (5R)-5-(methylamino)-5,6-dihydro-4H-imidazo[4,5,1-ij]quinolin-2(1H)-one (Z)-2-butenedioate (1:1)]", "values": [
      {"measurement": "neuroprotective effects of sumanirole after pretreatment with raclopride", "setting": "rats; pretreatment with raclopride", "result": "did not block"},
      {"measurement": "3-AP induced reduction in rotorod performance", "setting": "rats; sumanirole 1-20 mg/kg PO, given before or after 3-AP, dose-related", "result": "significantly attenuated"},
      {"measurement": "3-AP induced reduction in cerebellar ATP", "setting": "rats; [2]", "result": "significantly attenuated"},
      {"measurement": "3-AP induced reduction in cerebellar cGMP", "setting": "rats; [2]", "result": "significantly attenuated"},
      {"measurement": "inferior olive neuronal cell loss produced by 3-AP", "setting": "rats; sumanirole 1-20 mg/kg PO, neuronal cell counts 96 hours later", "result": "significantly reduced"}
    ]}
  ]
}
